Assay results published in patent US8686113B2 (priority 2009, dated 2014).
In brackets after ≈: the same amount, converted by molar mass. Non-standard residues stand in square brackets, D forms with d. Residues, ends and D or L forms follow the SMILES beside them. Arg(NO2) = N=C(NCCC[C@H](N)C(=O)O)N[N+](=O)[O-]; NMeR = CN[C@@H](CCCNC(=N)N)C(=O)O; Hyp = O=C(O)[C@@H]1C[C@@H](O)CN1; hArg = N=C(N)NCCCC[C@H](N)C(=O)O; β3hR = N=C(N)NCCC[C@H](N)CC(=O)O; Agp = N=C(N)NC[C@H](N)C(=O)O; Orn = NCCC[C@H](N)C(=O)O; Dap = NC[C@H](N)C(=O)O

How the values were obtained:
E. coli BL21 A1 = assay type: cell-based, Escherichia coli; conditions: BL21, 20 h
Description: (§1) The minimum inhibitory concentrations (MIC) of the antimicrobial peptides and peptide derivatives were determined in microdilution assays. These used a continuous peptide dilution in sterile flat-bottomed 96-well microtiter plates (polystyrene, Greiner Bio-One GmbH, Frickenhausen, Germany) and a total volume of 100 μL per well. The aqueous peptide or peptidomimetic solutions were diluted with 1% TSB water, to obtain a final concentration of 256 μg/mL. 50 μL of the peptide or peptidomimetic solution was pipetted into the first well of each series and stirred. From this solution, 50 μL was transferred to the second well, stirred and again 50 μL was transferred to the next well, and so on. A double dilution series is obtained, beginning at 256 μg/mL in the first well to 125 ng/mL in the twelfth well. The bacteria, e.g. E. coli BL21 A1, were cultured overnight at 37° C. in nutrient broth (NB, Carl Roth GmbH+Co. KG, Karlsruhe, Germany). 50 μL of a 5×10^6 bacteria/mL suspension in 1% TSB was added to each well of the microtiter plate and thus a final concentration of the peptides or peptidomimetics from 128 μg/mL (well 1) to 62.5 ng/mL (well 12) was established in each series. The plates were incubated at 37° C. for 20 h and then the absorption was measured at 595 nm with a TECAN microtiter plate spectrophotometer (Tecan Trading AG, Mannedorf, Switzerland). The MIC values of all peptides and peptidomimetics were determined in triplicate. Sterile water was used as negative control. The MIC value represents the lowest peptide concentration at which no bacterial growth is observed after an incubation time of 20 h at 37° C.
(§2) The MIC values of the peptides and peptide derivatives against Escherichia coli BL21 A1 and Micrococcus luteus ATCC 10240 are given in Table 7.

M. luteus 10240 = experiment: Growth inhibition assay (microdilution MIC); assay type: cell-based, Micrococcus luteus; conditions: 10240, 20 h
Description: as §1, §2

| SMILES | MIC E. coli BL21 A1 (E. coli BL21 A1) [µg/mL] | MIC M. luteus 10240 (M. luteus 10240) [µg/mL] |
| --- | --- | --- |
| CC[C@H](C)[C@H](NC(=O)[C@H](CCCNC(=N)N)NC(=O)[C@H](CCCNC(=N)N)NC(=O)[C@@H]1CCCN1C(=O)[C@@H]1CCCN1C(=O)[C@@H]1C[C@@H](O)CN1C(=O)[C@@H]1CCCN1C(=O)[C@H](CCCNC(=N)N)NC(=O)[C@@H]1CCCN1C(=O)[C@H](CC(C)C)NC(=O)[C@H](Cc1ccc(O)cc1)NC(=O)[C@@H]1CCCN1C(=O)[C@@H]1CCCN1C(=O)[C@H](CCCCN)NC(=O)[C@H](CC(=O)O)NC(=O)[C@@H](N)C(C)C)C(=O)N[C@@H](Cc1ccc(O)cc1)C(=O)N[C@@H](CC(N)=O)C(=O)N[C@@H](CCCNC(=N)N)C(=O)O [compound 3] (H-VDKPPYLPRP[Hyp]PPRRIYNR-OH) | 128 (≈ 54.5 µM) | 32 (≈ 13.6 µM) |
| CC[C@H](C)[C@H](NC(=O)[C@H](CCCNC(=N)N)NC(=O)[C@H](CCCNC(=N)N)NC(=O)[C@@H]1CCCN1C(=O)[C@@H]1CCCN1C(=O)[C@H](CCCNC(=N)N)NC(=O)[C@@H]1CCCN1C(=O)[C@H](CCCNC(=N)N)NC(=O)[C@@H]1CCCN1C(=O)[C@H](CC(C)C)NC(=O)[C@H](Cc1ccc(O)cc1)NC(=O)[C@@H]1CCCN1C(=O)[C@@H]1CCCN1C(=O)[C@H](CCCCN)NC(=O)[C@H](CC(=O)O)NC(=O)[C@@H](N)C(C)C)C(=O)N[C@@H](Cc1ccc(O)cc1)C(=O)N[C@@H](CC(N)=O)C(=O)N[C@@H](CCCN)C(=O)N[C@@H](CC(N)=O)C(N)=O [compound 26] (H-VDKPPYLPRPRPPRRIYN[Orn]N-NH2) | 8 (≈ 3.25 µM) | 8 (≈ 3.25 µM) |
| CC[C@H](C)[C@H](NC(=O)[C@H](CCCNC(=N)N)NC(=O)[C@H](CCCNC(=N)N)NC(=O)[C@@H]1CCCN1C(=O)[C@@H]1CCCN1C(=O)[C@H](CCCNC(=N)N)NC(=O)[C@@H]1CCCN1C(=O)[C@H](CCCNC(=N)N)NC(=O)[C@@H]1CCCN1C(=O)[C@H](CC(C)C)NC(=O)[C@H](Cc1ccc(O)cc1)NC(=O)[C@@H]1CCCN1C(=O)[C@@H]1CCCN1C(=O)[C@H](CCCCN)NC(=O)[C@H](CC(=O)O)NC(=O)[C@@H](N)C(C)C)C(=O)N[C@@H](Cc1ccc(O)cc1)C(=O)N[C@@H](CC(N)=O)C(=O)N[C@@H](CNC(C)=O)C(N)=O [compound 52] (H-VDKPPYLPRPRPPRRIYN[Dap](Ac)-NH2; N-terminus assumed) | 32 (≈ 13.5 µM) | 64 (≈ 27.1 µM) |
| CC[C@H](C)[C@H](NC(=O)[C@H](CCCNC(=N)N)NC(=O)[C@H](CCCNC(=N)N)NC(=O)[C@@H]1CCCN1C(=O)[C@@H]1CCCN1C(=O)[C@H](CCCNC(=N)N)NC(=O)[C@@H]1CCCN1C(=O)[C@H](CCCNC(=N)N)NC(=O)[C@@H]1CCCN1C(=O)[C@H](CC(C)C)NC(=O)[C@H](Cc1ccc(O)cc1)NC(=O)[C@@H]1CCCN1C(=O)[C@@H]1CCCN1C(=O)[C@H](CCCCN)NC(=O)[C@H](CC(=O)O)NC(=O)[C@@H](N)C(C)C)C(=O)N[C@@H](Cc1ccc(O)cc1)C(=O)N[C@@H](CC(N)=O)C(=O)N[C@@H](CNC(=N)N)C(N)=O [compound 54] (H-VDKPPYLPRPRPPRRIYN[Agp]-NH2) | 8 (≈ 3.39 µM) | 8 (≈ 3.39 µM) |
| CC[C@H](C)[C@H](NC(=O)[C@H](CCCNC(=N)N)NC(=O)[C@H](CCCNC(=N)N)NC(=O)[C@@H]1CCCN1C(=O)[C@@H]1CCCN1C(=O)[C@H](CCCNC(=N)N)NC(=O)[C@@H]1CCCN1C(=O)[C@H](CCCNC(=N)N)NC(=O)[C@@H]1CCCN1C(=O)[C@H](CC(C)C)NC(=O)[C@H](Cc1ccc(O)cc1)NC(=O)[C@@H]1CCCN1C(=O)[C@@H]1CCCN1C(=O)[C@H](CCCCN)NC(=O)[C@H](CC(=O)O)NC(=O)[C@@H](N)C(C)C)C(=O)N[C@@H](Cc1ccc(O)cc1)C(=O)N[C@@H](CC(N)=O)C(=O)N[C@@H](CCCNC(=N)N[N+](=O)[O-])C(N)=O [compound 55] (H-VDKPPYLPRPRPPRRIYN[Arg(NO2)]-NH2) | 8 (≈ 3.29 µM) | 16 (≈ 6.57 µM) |
| CC[C@H](C)[C@H](NC(=O)[C@H](CCCNC(=N)N)NC(=O)[C@H](CCCNC(=N)N)NC(=O)[C@@H]1CCCN1C(=O)[C@@H]1CCCN1C(=O)[C@H](CCCNC(=N)N)NC(=O)[C@@H]1CCCN1C(=O)[C@H](CCCNC(=N)N)NC(=O)[C@@H]1CCCN1C(=O)[C@H](CC(C)C)NC(=O)[C@H](Cc1ccc(O)cc1)NC(=O)[C@@H]1CCCN1C(=O)[C@@H]1CCCN1C(=O)[C@H](CCCCN)NC(=O)[C@H](CC(=O)O)NC(=O)[C@@H](N)C(C)C)C(=O)N[C@@H](Cc1ccc(O)cc1)C(=O)N[C@@H](CC(N)=O)C(=O)N(C)[C@@H](CCCNC(=N)N)C(N)=O [compound 56] (H-VDKPPYLPRPRPPRRIYN[NMeR]-NH2; N-terminus assumed) | 8 (≈ 3.33 µM) | 4 (≈ 1.66 µM) |
| CC[C@H](C)[C@H](NC(=O)[C@H](CCCNC(=N)N)NC(=O)[C@H](CCCNC(=N)N)NC(=O)[C@@H]1CCCN1C(=O)[C@@H]1CCCN1C(=O)[C@H](CCCNC(=N)N)NC(=O)[C@@H]1CCCN1C(=O)[C@H](CCCNC(=N)N)NC(=O)[C@@H]1CCCN1C(=O)[C@H](CC(C)C)NC(=O)[C@H](Cc1ccc(O)cc1)NC(=O)[C@@H]1CCCN1C(=O)[C@@H]1CCCN1C(=O)[C@H](CCCCN)NC(=O)[C@H](CC(=O)O)NC(=O)[C@@H](N)C(C)C)C(=O)N[C@@H](Cc1ccc(O)cc1)C(=O)N[C@@H](CC(N)=O)C(=O)N[C@@H](CCCCNC(=N)N)C(N)=O [compound 57] (H-VDKPPYLPRPRPPRRIYN[hArg]-NH2) | 8 (≈ 3.33 µM) | 8 (≈ 3.33 µM) |
| CC[C@H](C)[C@H](NC(=O)C[C@H](CCCNC(=N)N)NC(=O)[C@H](CCCNC(=N)N)NC(=O)[C@@H]1CCCN1C(=O)[C@@H]1CCCN1C(=O)[C@H](CCCNC(=N)N)NC(=O)[C@@H]1CCCN1C(=O)[C@H](CCCNC(=N)N)NC(=O)[C@@H]1CCCN1C(=O)[C@H](CC(C)C)NC(=O)[C@H](Cc1ccc(O)cc1)NC(=O)[C@@H]1CCCN1C(=O)[C@@H]1CCCN1C(=O)[C@H](CCCCN)NC(=O)[C@H](CC(=O)O)NC(=O)[C@@H](N)C(C)C)C(=O)N[C@@H](Cc1ccc(O)cc1)C(=O)N[C@@H](CC(N)=O)C(=O)N[C@@H](CCCNC(=N)N)C(N)=O [compound 62] (H-VDKPPYLPRPRPPR[β3hR]IYNR-NH2) | 4 (≈ 1.66 µM) | 16 (≈ 6.66 µM) |
| CC[C@H](C)[C@H](NC(=O)[C@H](CNC(=N)N)NC(=O)[C@H](CCCNC(=N)N)NC(=O)[C@@H]1CCCN1C(=O)[C@@H]1CCCN1C(=O)[C@H](CCCNC(=N)N)NC(=O)[C@@H]1CCCN1C(=O)[C@H](CCCNC(=N)N)NC(=O)[C@@H]1CCCN1C(=O)[C@H](CC(C)C)NC(=O)[C@H](Cc1ccc(O)cc1)NC(=O)[C@@H]1CCCN1C(=O)[C@@H]1CCCN1C(=O)[C@H](CCCCN)NC(=O)[C@H](CC(=O)O)NC(=O)[C@@H](N)C(C)C)C(=O)N[C@@H](Cc1ccc(O)cc1)C(=O)N[C@@H](CC(N)=O)C(=O)N[C@@H](CCCCNC(=N)N)C(N)=O [compound 65] (H-VDKPPYLPRPRPPR[Agp]IYN[hArg]-NH2) | 4 (≈ 1.68 µM) | 2 (≈ 0.842 µM) |
| CC[C@H](C)[C@H](NC(=O)[C@H](CNC(=N)N)NC(=O)[C@H](CCCNC(=N)N)NC(=O)[C@@H]1CCCN1C(=O)[C@@H]1CCCN1C(=O)[C@H](CCCNC(=N)N)NC(=O)[C@@H]1CCCN1C(=O)[C@H](CCCNC(=N)N)NC(=O)[C@@H]1CCCN1C(=O)[C@H](CC(C)C)NC(=O)[C@H](Cc1ccc(O)cc1)NC(=O)[C@@H]1CCCN1C(=O)[C@@H]1CCCN1C(=O)[C@H](CCCCN)NC(=O)[C@H](CC(=O)O)NC(=O)[C@@H](N)C(C)C)C(=O)N[C@@H](Cc1ccc(O)cc1)C(=O)N[C@@H](CC(N)=O)C(=O)N[C@@H](CNC(=N)N)C(N)=O [compound 66] (H-VDKPPYLPRPRPPR[Agp]IYN[Agp]-NH2) | 8 (≈ 3.43 µM) | 4 (≈ 1.71 µM) |
